According to the supplement of paper PMC4858399:
Structures can show the parent of a compound that is named as a salt.

Tests used:
Conditions in all cases: exposure time 48 h
[1] = system: Caenorhabditis elegans N2; test: AC50 for larval growth inhibition (Hill fit); higher = less potent
Procedure, shortened: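 Synchronised C. elegans N2 L1 larvae (50 per well, 96-well plates) were grown for 48 h at 20°C in K-medium with killed OP50, 1% DMSO and 0.5–200 µM chemical. The COPAS Biosort measured each worm's size as extinction, which was log-transformed and averaged per well. AC50 came from a constrained Hill fit by weighted genetic-algorithm regression on wells with at least 10 worms. Out-of-range values are censored.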

[2] = system: Caenorhabditis elegans N2; test: lowest effective concentration for larval growth inhibition (size below effect threshold); higher = less potent
Procedure, shortened: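 In 96-well plates, 50 C. elegans N2 L1 larvae per well were cultured at 20°C for 48 h in K-medium with killed bacteria and 1% DMSO, plus the chemical at 0.5, 1, 5, 10, 50, 100 or 200 µM. Size was measured as per-worm extinction on a Biosort and log-transformed into well means. Taking the first dose where the plate-adjusted mean size sits under 5.665 and stays there at higher doses gives the lowest effective concentration.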

[3] = system: Caenorhabditis elegans N2; test: mean nematode size ln(EXT) after 48 h, plate-adjusted (DMSO control set to 6) (ln(EXT), control-adjusted); higher = larger nematodes / less growth inhibition
Procedure, shortened: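 Each treatment used 4–6 wells of 50 synchronised C. elegans N2 L1 larvae, kept for 48 h at 20°C in K-medium with killed OP50, 1% DMSO and 0.5–200 µM chemical. Debris was excluded by a growth model after the Biosort measured per-worm extinction. Mean size per well came from natural-logged values and was plate-adjusted. That adjustment subtracted the vehicle control mean and then added 6.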

Row | SMILES | AC50 for larval growth inhibition [1] | lowest effective concentration [2] | mean nematode size ln(EXT) (ln) ([3]; 0.5 µM) | mean nematode size ln(EXT) (ln) ([3]; 1 µM) | mean nematode size ln(EXT) (ln) ([3]; 5 µM) | mean nematode size ln(EXT) (ln) ([3]; 10 µM) | mean nematode size ln(EXT) (ln) ([3]; 50 µM) | mean nematode size ln(EXT) (ln) ([3]; 100 µM) | mean nematode size ln(EXT) (ln) ([3]; 200 µM)
1 | O=C(O)C(F)(F)C(F)(F)C(F)(F)C(F)(F)C(F)(F)C(F)(F)C(F)(F)C(F)(F)C(F)(F)C(F)(F)F [Perfluoroundecanoic acid] | 4.14 µM | 5 µM | 5.8 | 5.77 | 4.55 | 3.95 | 3.63 | 3.64 | 3.2
2 | CCCCCCCCCC[N+](C)(C)CCCCCCCCCC [Didecyl dimethyl ammonium chloride] | 17 µM | 10 µM | 5.9 | 5.91 | 5.88 | 5.51 | 3.71 | 3.63 | 3.62
3 | COC(=O)c1ccccc1N [Methyl 2-aminobenzoate] | > 200 µM | 200 µM | 5.88 | 5.87 | 5.91 | 5.88 | 5.8 | 5.7 | 5.64
4 | CC(C)c1nnc2ccc(-c3ocnc3-c3cc(F)ccc3F)cn12 | > 200 µM | 200 µM | 5.79 | 5.88 | 5.84 | 5.82 | 5.82 | 5.79 | 5.53
5 | ClC1=C(Cl)C2(Cl)C3C4CC(C5OC45)C3C1(Cl)C2(Cl)Cl (stereo not given) [Endrin] | 8.83 µM | 5 µM | 5.93 | 5.85 | 4.99 | 4.95 | 3.81 | 3.9 | 3.75
6 | Fc1ccccc1[C@@H](F)CO[C@H]1CC[C@H](Nc2[nH]cnc3nncc2-3)CC1 | > 200 µM | 100 µM | 5.89 | 5.84 | 5.82 | 5.68 | 5.67 | 5.25 | 5.4
7 | Clc1ccc(C(c2ccc(Cl)cc2)C(Cl)(Cl)Cl)cc1 [p,p'-DDT] | 3.83 µM | 5 µM | 6 | 5.91 | 4.31 | 3.75 | 3.44 | 3.36 | 3.29
8 | Clc1cc(Cl)c(Cl)cc1Cl [1,2,4,5-Tetrachlorobenzene] | 110 µM | 50 µM | 5.97 | 5.98 | 6.07 | 6.11 | 5.34 | 4.83 | 3.82
9 | CN(C)CCCN1c2ccccc2Sc2ccc(Cl)cc21 [Chlorpromazine hydrochloride] | 46.3 µM | 50 µM | 5.89 | 5.87 | 5.82 | 5.71 | 4.47 | 3.85 | 3.07
10 | c1ccc2cc3c(ccc4ccccc43)cc2c1 [Benz[a]anthracene] | 24.9 µM | 1 µM | 5.89 | 4.38 | 5.22 | 5.01 | 4.59 | 4.58 | 3.32
11 | Nc1cc2c3c(c1)C(c1ccccc1)=N[C@@H](NC(=O)c1cccnc1)C(=O)N3CC2 | > 200 µM | 50 µM | 5.78 | 5.74 | 5.7 | 5.73 | 5.63 | 5.62 | 5.61
12 | CCC(C)c1cc([N+](=O)[O-])cc([N+](=O)[O-])c1O (stereo not given) [Dinoseb] | > 200 µM | 100 µM | 6.02 | 5.96 | 5.94 | 5.91 | 5.82 | 5.56 | 5.04
13 | Cc1cc(C2CC2)nc(Nc2ccccc2)n1 [Cyprodinil] | 132 µM | 50 µM | 5.93 | 5.88 | 5.96 | 5.86 | 5.32 | 5.01 | 4
14 | CC(C)(C)CC(C)(C)c1ccc(O)c(-n2nc3ccccc3n2)c1 [Octrizole] | > 200 µM | ≤ 0.5 µM | 5.46 | 5.58 | 5.57 | 5.58 | 5.58 | 5.55 | 5.44
15 | CC(C)c1cccc(C(C)C)c1 [1,3-Diisopropylbenzene] | 175 µM | 200 µM | 6.02 | 5.98 | 5.99 | 6.07 | 6.21 | 6.12 | 5.46
16 | CCCCCCCCCCO [1-Decanol (Decanol)] | 143 µM | 200 µM | 5.95 | 5.91 | 5.83 | 5.85 | 5.79 | 5.69 | 3.42
17 | C=CC1(C)OC(=O)N(c2cc(Cl)cc(Cl)c2)C1=O (stereo not given) [Vinclozolin] | 1.18 µM | 1 µM | 5.76 | 5.01 | 3.56 | 3.46 | 3.32 | 3.11 | 3.61
18 | CCOP(=S)(Oc1ccc([N+](=O)[O-])cc1)c1ccccc1 (stereo not given) [O-Ethyl O-(p-nitrophenyl) phenylphosphonothioate] | 6.09 µM | ≤ 0.5 µM | 5.28 | 5.07 | 4.53 | 4.38 | 4.13 | 4.01 | 3.39
19 | N#Cc1nn(-c2c(Cl)cc(C(F)(F)F)cc2Cl)c(N)c1[S+]([O-])C(F)(F)F (stereo not given) [Fipronil] | > 200 µM | 10 µM | 5.96 | 5.84 | 5.92 | 5.65 | 5.59 | 5.52 | 5.17
20 | O=C(Nc1ccc2[nH]ccc2c1)c1cc2cc(F)ccc2n1Cc1cccc(F)c1 | 6.54 µM | 1 µM | 5.77 | 5.57 | 5.5 | 3.83 | 3.84 | 3.62 | 3.51
21 | Nc1ccccc1N [1,2-Phenylenediamine] | > 200 µM | 50 µM | 5.84 | 5.95 | 5.92 | 5.74 | 5.66 | 5.46 | 5.19
22 | CN(C)C(=O)C1(N2CCCCC2)CCN(CCC2(c3ccc(Cl)c(Cl)c3)CN(C(=O)c3ccccc3)CCO2)CC1 (stereo not given) | 119 µM | 50 µM | 5.78 | 5.82 | 5.83 | 5.77 | 5.23 | 4.76 | 4.06

Row | SMILES | AC50 for larval growth inhibition [1] | lowest effective concentration [2] | mean nematode size ln(EXT) (ln) ([3]; 0.5 µM) | mean nematode size ln(EXT) (ln) ([3]; 1 µM) | mean nematode size ln(EXT) (ln) ([3]; 5 µM) | mean nematode size ln(EXT) (ln) ([3]; 10 µM) | mean nematode size ln(EXT) (ln) ([3]; 50 µM) | mean nematode size ln(EXT) (ln) ([3]; 100 µM) | mean nematode size ln(EXT) (ln) ([3]; 200 µM)
23 | CCOc1cc(Oc2ccc(C(F)(F)F)cc2Cl)ccc1[N+](=O)[O-] [Oxyfluorfen] | 3.64 µM | ≤ 0.5 µM | 5.57 | 5.42 | 4.64 | 3.99 | 3.63 | 3.63 | 3.46
24 | O=C(O)C(F)(F)C(F)(F)C(F)(F)C(F)(F)C(F)(F)C(F)(F)C(F)(F)C(F)(F)F [Perfluorononanoic acid] | 39 µM | 10 µM | 5.85 | 5.84 | 5.81 | 5.61 | 4.27 | 3.92 | 3.1
25 | Cc1cc(CCN2CCN(c3nsc4ccccc34)CC2)cc2c1NC(=O)CC2(C)C | 41.3 µM | 5 µM | 5.77 | 5.72 | 5.61 | 5.4 | 4.49 | 4.01 | 3.55
26 | CO/N=C(/C1=NOCCO1)c1ccccc1Oc1ncnc(Oc2ccccc2Cl)c1F [Fluoxastrobin] | > 200 µM | 50 µM | 5.86 | 5.94 | 6.05 | 6.07 | 5.65 | 5.6 | 5.12
27 | CC(C)(C)c1ccccc1O [2-tert-Butylphenol] | > 200 µM | 200 µM | 5.96 | 5.94 | 5.97 | 5.92 | 5.81 | 5.81 | 4.94
28 | Oc1ccc2c(c1)OC[C@@H](N1CCC(O)(c3ccc(F)cc3)CC1)[C@H]2O | 51.4 µM | 50 µM | 5.9 | 6.11 | 6.21 | 6.18 | 5.48 | 4.39 | 4.5
29 | Oc1c(Cl)c(Cl)c(Cl)c(Cl)c1Cl [Pentachlorophenol] | 146 µM | 50 µM | 5.82 | 5.94 | 5.92 | 5.89 | 5.6 | 5.01 | 4.2
30 | CCOC(=O)CC(SP(=S)(OC)OC)C(=O)OCC (stereo not given) [Malathion] | > 200 µM | 100 µM | 5.93 | 6.01 | 5.79 | 5.98 | 5.8 | 5.59 | 5.28
31 | C=CCc1cc(S(=O)(=O)c2ccc(O)c(CC=C)c2)ccc1O [4,4'-sulfonylbis[2-(prop-2-en-1-yl)phenol]] | 190 µM | 50 µM | 5.87 | 5.88 | 5.9 | 5.89 | 5.39 | 5.1 | 4.49
32 | CSC(=O)c1cccc2nnsc12 [Acibenzolar-S-Methyl] | > 200 µM | 10 µM | 5.65 | 5.73 | 5.67 | 5.6 | 5.37 | 5.36 | 5.36
33 | CCSC(=O)N1CCCCCC1 [Molinate] | > 200 µM | ≤ 0.5 µM | 5.42 | 5.42 | 5.29 | 5.63 | 5.44 | 5.62 | 5.21
34 | COCCOc1cc2cc(C(=O)NC3CCN(C(C)C)CC3)n(CC(=O)Nc3ccc(Cl)cn3)c2cn1 | 47.5 µM | 50 µM | 5.85 | 5.84 | 5.82 | 5.77 | 4.98 | 4.13 | 5.19
35 | COc1cccc(-c2ccc(/C=C\CN3CCCCCC3)cc2Cl)c1 | 90.6 µM | 5 µM | 5.88 | 5.69 | 5.61 | 5.5 | 4.98 | 4.39 | –
36 | CCCCOCCOCCOCc1cc2c(cc1CCC)OCO2 [Piperonyl butoxide] | 76.9 µM | 50 µM | 5.87 | 5.86 | 5.8 | 5.86 | 5.48 | 5.43 | 5.41
37 | C[Si](Cn1cncn1)(c1ccc(F)cc1)c1ccc(F)cc1 [Flusilazole] | 43.2 µM | 5 µM | 5.73 | 5.67 | 5.55 | 5.53 | 4.57 | 3.63 | 3.47
38 | O=C(NC(=O)c1c(F)cccc1F)Nc1cc(Cl)c(OC(F)(F)C(F)F)c(Cl)c1 [Hexaflumuron] | > 200 µM | 10 µM | 5.94 | 5.96 | 5.8 | 5.64 | 5.5 | 5.44 | 4.83
39 | CCCSP(=O)(OCC)Oc1ccc(Br)cc1Cl (stereo not given) [Profenofos] | 56.4 µM | 50 µM | 5.75 | 6.26 | 6.17 | 6.04 | 4.95 | 3.31 | 3.04
40 | O=C1C2(Cl)C3(Cl)C4(Cl)C(Cl)(Cl)C5(Cl)C3(Cl)C1(Cl)C5(Cl)C24Cl (stereo not given) [Kepone (Chlordecone)] | 3.31 µM | 1 µM | 5.67 | 5.53 | 4.74 | 4.04 | 3.69 | 3.63 | 4.06
41 | CC1(C)C(C=C(Cl)Cl)C1C(=O)OC(C#N)c1cccc(Oc2ccccc2)c1 (stereo not given) [Cypermethrin] | > 200 µM | 200 µM | 6.09 | 6.11 | 6.12 | 6.03 | 5.88 | 5.71 | 5.17
42 | C=C(C)C(=O)OCCC(F)(F)C(F)(F)C(F)(F)C(F)(F)C(F)(F)C(F)(F)F [3,3,4,4,5,5,6,6,7,7,8,8,8-Tridecafluorooctyl methacrylate] | 23 µM | 50 µM | 5.88 | 5.84 | 5.84 | 5.73 | 5.6 | 5.45 | 5.57
43 | Clc1cc(Cl)c2c(c1)N=C1CCCCCN1C2 | > 200 µM | 100 µM | 5.91 | 5.88 | 5.72 | 5.8 | 5.67 | 5.54 | 4.82
44 | CCCCCCCCCCCCc1cccc(S(=O)(=O)O)c1 [Triethanolamine dodecylbenzene sulfonate] | 50.5 µM | 50 µM | 5.43 | 5.59 | 5.54 | 5.69 | 5.03 | 4.02 | 4.04
